Patent publication US20060265770A1, “Transgenic mice containing glutamate receptor (GRIK5) gene disruptions” (priority 2000, published 2006)

System: F2N1 Male Mice
Assay: Metrazol Test (seizure susceptibility, tail vein infusion)
Assay type: in vivo, mouse
Details: for dose at death, Average ± Stdev / dose at first twitch, Average ± Stdev / dose at tonic extension, Average ± Stdev / dose at tonic/clonic seizure, Average ± Stdev: 5 mg/mL Metrazol infused through tail vein at 0.375 mL/min
Protocol: A metrazol administration test can be used to screen animals for varying susceptibilities to seizures or similar events. For example, a 5 mg/ml solution of metrazol can be infused through the tail vein of a mouse at a rate of, e.g., approximately 0.375 ml/min. The infusion will cause all mice to experience seizures, followed by death. Those mice that enter the seizure stage the soonest are believed to be more prone to seizures.
To screen for phenotypes involving changes in seizure susceptibility, the Metrazol Test was used. A 5 mg/mL solution of Metrazol was infused through the tail vein of the mouse at a constant rate of 0.375 mL/min. The infusion causes all mice to experience seizures. Those mice who enter the seizure stage the quickest are thought to be more prone to seizures in general.
To screen for phenotypes involving epilepsy, the Metrazol was used. Seven to ten adult wild-type and homozygote males were used. A fresh solution of 5 mg/ml pentylenetetrazole in 0.9% NaCl was prepared prior to testing. Mice were weighed and loosely held in a restrainer. After exposure to a heat lamp to dilate the tail vein, mice were continuously infused with the pentylenetetrazole solution using a syringe pump set at a constant flow rate. The following stages were recorded: first twitch (sometimes accompanied by a squeak), beginning of the tonic/clonic seizure, tonic extension and survival time. The dose required for each phase is determined and the latency to each phase was determined between genotypes. Alterations in any stage may indicate an overall imbalance in excitatory or inhibitory neurotransmitter levels. When compared to age- and gender-matched wild-type (+/+) control mice, homozygous mutant (−/−) mice required a lower dose of metrazol to induce a tonic/clonic seizure (FIG. 5 and Table 1), indicating an increased susceptibility to seizure.

[1] = GRIK5 homozygous mutant (−/−) F2N1 male mice

C1CCc2nnnn2CC1 [Metrazol, pentylenetetrazole]
dose at death, Average ± Stdev [1]: 136.12 ± 27.18 mg/kg
dose at first twitch, Average ± Stdev [1]: 26.38 ± 2.59 mg/kg
dose at tonic extension, Average ± Stdev [1]: 115.34 ± 28.63 mg/kg
dose at tonic/clonic seizure, Average ± Stdev [1]: 34.02 ± 6.24 mg/kg
dose of metrazol to induce a tonic/clonic seizure, in words (homozygous mutant (−/−) mice compared to age- and gender-matched wild-type (+/+) control mice): lower dose
dose at death, Average ± Stdev (wild-type (+/+) F2N1 male mice): 134.29 ± 31.19 mg/kg
dose at first twitch, Average ± Stdev (wild-type (+/+) F2N1 male mice): 29.73 ± 3.85 mg/kg
dose at tonic extension, Average ± Stdev (wild-type (+/+) F2N1 male mice): 112.07 ± 29.70 mg/kg
dose at tonic/clonic seizure, Average ± Stdev (wild-type (+/+) F2N1 male mice): 44.59 ± 9.74 mg/kg
